# System: HOS:HR-1 mice
# Assay: Skin water content after oral ingestion of citrulline in feed (SKICON-200)
# Type: in vivo
# Conditions: CE-2 feed containing 1.0% by weight of L-citrulline, measured weekly from 1 to 5 weeks, relative to CE-2 feed group
# Procedure: HOS:HR-1 mice (male, 5 weeks old, purchased from Charles River Co., Ltd.) were used in the test. The breeding conditions were that the room temperature was 22±2° C., the humidity was 35±15% and a feed and water were freely ingested.
# Each test group consisted of 10 mice. A commercially available powder feed CE-2 (manufactured by Clea Japan) was fed to mice of the first group, CE-2 containing 1.0% by weight of L-citrulline (manufactured by Kyowa Hakko Kogyo Co., Ltd.) was fed to mice of the second group.
# The water content of the skin surface on the back thigh upper portion of each mouse was measured with SKICON-200 (manufactured by IBS) every one week, from a week to five weeks after the start-up of the feeding of each feed. The measurement was conducted ten times for each mouse, and an average value of each mouse was obtained. Further, an average value of each test group was calculated.
# The relative epidermal water content was calculated according to the following formula using the average value. Relative epidermal water content (%)=(A2/A1)×100 • A1: Epidermal water content of the first group • A2: Epidermal water content of the second group
smiles,measurement,value
"NC(=O)NCCC[C@H](N)C(=O)O [citrulline, L-citrulline]",water content of the skin (relative epidermal water content),markedly improved

# — patent publication US8153692B2, “Oral preparation for preventing or improving skin dryness” (Kyowa Hakko Bio Co., Ltd., priority 2005, dated 2012)
